What all share (type): cell-based
The subject of data set [1] is human breast cancer cell lines (MDA-MB-231). The settings on record: for Cell viability (%) of test cells: human, 48 h. On the procedure:
(§1) The antitumor activity of Sample 1 synthesized in the above Test Example 1 with respect to human-derived cultured tumor cells was evaluated. Currently commercially available human gastric cancer cell lines (FU97), human alveolar basal epithelial adenocarcinoma cell lines (A549), human breast cancer cell lines (MDA-MB-231), and human melanoma cell lines (A375) were prepared as test tumor cells. In addition, normal human mammary epithelial cell culture lines (MCF-12F) were prepared for comparison. A DMEM culture medium including 0.1 mM of non-essential amino acids, 50 unit/mL of penicillin, 50 μg/mL of streptomycin, and 10% FBS. The above five types of cell lines were cultured in respective designated culture solutions. The cell lines were cultured so that the number of cells per well in a 96-hole (well) plate was about 5×10^3. Here, an amount of the culture solution per well was 100 μL. The 96-well plate was then placed in a CO2 incubator. Then, pre-incubation was performed under conditions of 37° C. and 5% CO2 for about 1 day (about 23 hours). Then, regarding the culture solution for the peptide addition area, culture solutions containing Sample 1 for each concentration were prepared so that the concentration of Sample 1 was 6.25 μM, 12.5 μM or 25 μM and supplied to wells (that is, wells after the pre-incubation) in which 90 μL of cells to be evaluated were cultured in each well. On the other hand, regarding the culture solution for the comparative test area, a culture solution to which no Sample 1 was added was prepared, and supplied to wells (that is, wells after the pre-incubation) in which 90 μL of cells to be evaluated were cultured in each well. The 96-well plate was then placed in a CO2 incubator, and incubated under conditions of 37° C. and 5% CO2 for 48 hours. […] Then, the absorbance at a wavelength of 450 nm (value corrected by the absorbance at a wavelength of 620 nm: A450-A620) was measured based on the reduction of the tetrazolium salt in the culture solution. Then, the cell viability was calculated according to a colorimetric method. In the test areas (test areas 1 to 3) in the peptide addition area, the cell viability of each of the above five types of cell lines was calculated as a relative value when a measured value (measurement absorbance) of the comparative test area in the same cell lines was set as 100%. That is, regarding each of the above five types of cell lines, the cell viability (%) was calculated by dividing the measurement absorbance of the test areas (test areas 1 to 3) in the peptide addition area by the measurement absorbance of the comparative test area in the same cell lines and multiplying by 100.

Data set [2] has as its system tumor cells derived from non-human mammals. The data set is described as follows: Antitumor activity on tumor cells derived from non-human mammals (data not shown). The settings on record: detailed data not shown.
Data set [3] concerns human alveolar basal epithelial adenocarcinoma cell lines (A549). As to conditions: for Cell viability (%) of test cells: human, 48 h. On the procedure:
as §1, with “An RPMI-1640” for “A DMEM”, “2” for “0.1”, “L-glutamine, 1 mM of sodium pyruvate, 10 mM of HEPES, […] of glucose,” for “non-essential amino acids,”, “FBS (product, commercially available from Wako Pure Chemical Industries, Ltd.).” for “FBS.”

Read-outs that look alike come from different tables or passages of the source. Ends that are not written are not given here.

Turning to “MACLGFQRHKAQLNLATRTWPCTLLFFLLFIPVFCKKRTLRKTDRKKR-NH2 (cysteines drawn unpaired) [Sample 1]”, the “Specific cell viability of test tumor cells” value is reported as 47.9 in data set [1] (MDA-MB-231, 12.5 μM Sample 1, (cell viability of test tumor cells)/(cell viability of MCF-12F cells)×100) and 36.0 in data set [3] (A549, 12.5 μM Sample 1, (cell viability of test tumor cells)/(cell viability of MCF-12F cells)×100). The “Cell viability (%) of test cells” value in data set [1] (6.25 μM) was determined as 67.8%; in data set [1] (12.5 μM), 54.7%; in data set [1] (25 μM) it was 41.6%; in data set [3] (6.25 μM), 64.7%; in data set [3] (12.5 μM), 41.1%; in data set [3] (25 μM) it was 24.9%. The “antitumor activity and tumor cell-selective antitumor activity” value in data set [2] is “high antitumor activity and tumor cell-selective antitumor activity”.

The record behind these values is patent US11472845B2, “Antitumor peptide and use thereof” (TOAGOSEI CO., LTD., priority 2019, dated 2022).
